The values that follow come from PubChem BioAssay AID2060905 (Molecular Pharmacology Branch, DTP, NCI, 2025).

For the assay, the system named is 282377-053-R-J1-PDC complex spheroid viability. Kind of assay: Anticancer human tumor 282377-053-R-J1-PDC patient-derived colon adenocarcinoma cell line growth inhibition [RAS]. The note with it: for viability, T/C: stronger effect = lower value. An excerpt: RAS pathway inhibitors in Combinations in Complex Spheroids
A high-throughput screen of multi-cell type tumor spheroids was designed to identify active combinations of RAS pathway inhibitors and targeted small molecules. Complex spheroids include a stromal component modeled by human endothelial cells (HUVEC) and fibroblasts modeled by human mesenchymal stem cells (MSCs). The concentration ranges selected for each drug and investigational agent were based upon clinically achievable concentrations if the clinical Cmax of the agent was known.
Compounds. The drugs and investigational agents: abemaciclib (NSC768073), cobimetinib (NSC768068), divarasib (GDC6063, NSC841802), docetaxel (NSC628503), GDC-1971 (RLY-1971, NSC841576), gemcitabine (NSC613327), inavolisib (NSC800729), ipatasertib (NSC767898), KB-0742 (NSC834161), MRTX-1133 (NSC836407), osimertinib (NSC779217), RMC-4630 (NSC839698), RMC-6236 (NSC851965), RMC-6291 (NSC852671), Ro-3306 (NSC812927), sapanisertib (NSC764658), SN-38 (NSC673596), staurosporine (NSC755774), SY5609 (NSC837396), and tovorafenib (DAY101, NSC766906), were obtained from the National Cancer Institute (NCI) Developmental Therapeutics Program Chemical Repository. The FDA-approved anticancer drug set is available from the NCI Developmental Therapeutics Program. […] The stock solutions were prepared in dimethyl sulfoxide (DMSO, Sigma-Aldrich, St. Louis, MO, cat. D2650) at 800-fold the tested concentration and stored at -70 degrees C prior to their use. All drugs and investigational agents were tested over a range starting from a high concentration at or near the clinical Cmax and decreasing in half-log increments. If the clinical Cmax for an agent had not been determined, the highest concentration tested was 10 microM.
Cell Culture. All cells were maintained in an incubator at 37 degrees C and 5% CO2 with 95% humidity. The PDC lines were cultured according to standard operating procedures established by the NCI PDMR. All PDCs were thawed and cultured in Matrigel-coated flasks prepared with a working solution of 1X Ham's F-12 nutrient mix, without supplementation (Invitrogen, Waltham, MA, cat. 11765054), 100 U/mL penicillin-streptomycin (Invitrogen, cat. 15140122), and 2.5% Matrigel (Corning Inc., Corning, NY, cat. 354248) for the first three passages. The 362531-283-R-J2-PDC and 782815-120-R-J1-PDC lines were cultured in 6C/Colon 1B media, which includes advanced DMEM/F-12 (Thermo Fisher Scientific, cat. 12634028), 10 mM HEPES (Thermo Fisher Scientific, cat. 15630080), 1X GlutaMAX supplement (Thermo Fisher Scientific, cat. 35050061), 0.1 mg/mL primocin (InvivoGen, San Diego, CA, cat. ant-pm-2), 10% defined fetal bovine serum, heat inactivated (HyClone Laboratories Inc., Logan, UT, cat. SH30070.03HI), 50% L-WRN conditioned media (ATCC, cat. CRL-3276), 1.25 mM N-Acetyl-L-cysteine (Sigma-Aldrich, cat. A9165), 10 mM nicotinamide (Sigma-Aldrich, cat. N0636), 1X B-27 supplement (Thermo Fisher Scientific, cat. 17504044), 1X N-2 supplement (Thermo Fisher Scientific, cat. 17502048), 50 ng/mL human EGF (Thermo Fisher Scientific, cat. PHG0311), and 10 microM Y-27632 dihydrochloride (Tocris Bioscience, cat. 1254). The K12877-001-R-J1-PDC line was cultured in 6I media, which includes all 6C/Colon 1B media plus 10 ng/mL human FGF-10 (PeproTech, cat. 100-26), 1 ng/mL human FGF-2 (PeproTech, cat. 100-18B), 1 µM prostaglandin E2 (Tocris Bioscience, cat. 2296), […] hydrocortisone (Sigma-Aldrich, cat. H4001), and […] bovine insulin (Sigma-Aldrich, cat. I6634). The K86415-001-R-J1-PDC line was cultured in 6D media, which includes all 6C/Colon 1B media components minus the L-WRN conditioned media. The 485176-168-R4-J1-PDC was cultured in PANC media, which includes all 6C/Colon 1B media plus 100 ng/mL human FGF-10 (PeproTech, cat. 100-26), 500 nM SB-431542 (Selleckchem, cat. S1067), and 10 nM gastrin (Tocris Bioscience, cat. 3006). […]

The structures appear in SMILES notation. Several values for one entry are separate records, joined by “and”; a condition that tells them apart may be missing. Equal entries are not always repeated.
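Further: spheroids exposed to agents for seven days before readout.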
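Wherever viability, T/C is given: luminescence viability as percent of DMSO vehicle control wells.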

In general, IC50 refers to the point on the concentration scale where inhibition reaches its midpoint. By viability, T/C is commonly meant the result in the treated group divided by that in the control group, in per cent. For the molecule `CC(C)n1nc(-c2ccc3oc(N)nc3c2)c2c(N)ncnc21` + CCn1c(-c2cccnc2C(C)OC)c2c3cc(ccc31)N1CCOC(CC(NC(=O)C(C(C)C)N(C)C(=O)C3(F)CCN(C(=O)C#CC(C)(C)N(C)C)CC3)C(=O)N3CCCC(N3)C(=O)OCC(C)(C)C2)C1, the IC50 was over 100 nM (curve of first compound, second compound 0.000949 µM); over 100 nM (curve of first compound, second compound 0.003 µM); over 100 nM (curve of first compound, second compound 0.00949 µM); over 100 nM (curve of first compound, second compound 0.03 µM); over 100 nM (curve of first compound, second compound 0.0949 µM); over 100 nM (curve of first compound, second compound 0.3 µM). In addition, the viability, T/C reads like this: (second compound 0.000949 µM, first compound 0.000316 µM) 91.5%; (second compound 0.000949 µM, first compound 0.001 µM) 112%; (second compound 0.000949 µM, first compound 0.00316 µM) 87.1%; (second compound 0.000949 µM, first compound 0.01 µM) 76.9%; (second compound 0.000949 µM, first compound 0.0316 µM) 65.7%; (second compound 0.000949 µM, first compound 0.1 µM) 59.7%. In addition, the viability, T/C by setting is: (second compound 0.003 µM, first compound 0.000316 µM) 84.5%; (second compound 0.003 µM, first compound 0.001 µM) 103%; (second compound 0.003 µM, first compound 0.00316 µM) 73.8%; (second compound 0.003 µM, first compound 0.01 µM) 73.6%; (second compound 0.003 µM, first compound 0.0316 µM) 75.3%; (second compound 0.003 µM, first compound 0.1 µM) 70.1%. The viability, T/C was 119% (second compound 0.00949 µM, first compound 0.000316 µM); 108% (second compound 0.00949 µM, first compound 0.001 µM); 98.5% (second compound 0.00949 µM, first compound 0.00316 µM); 80% (second compound 0.00949 µM, first compound 0.01 µM); 67.8% (second compound 0.00949 µM, first compound 0.0316 µM); 59.1% (second compound 0.00949 µM, first compound 0.1 µM). In addition, the viability, T/C was 110% (second compound 0.03 µM, first compound 0.000316 µM); 87.2% (second compound 0.03 µM, first compound 0.001 µM); 77.3% (second compound 0.03 µM, first compound 0.00316 µM); 86% (second compound 0.03 µM, first compound 0.01 µM); 66.9% (second compound 0.03 µM, first compound 0.0316 µM); 50.2% (second compound 0.03 µM, first compound 0.1 µM). Besides, the viability, T/C was 100% (second compound 0.0949 µM, first compound 0.000316 µM); 117% (second compound 0.0949 µM, first compound 0.001 µM); 86.9% (second compound 0.0949 µM, first compound 0.00316 µM); 75% (second compound 0.0949 µM, first compound 0.01 µM); 68.1% (second compound 0.0949 µM, first compound 0.0316 µM); 48.5% (second compound 0.0949 µM, first compound 0.1 µM). For the same molecule, the viability, T/C is 107% (second compound 0.3 µM, first compound 0.000316 µM); 89.2% (second compound 0.3 µM, first compound 0.001 µM); 96.3% (second compound 0.3 µM, first compound 0.00316 µM); 73.2% (second compound 0.3 µM, first compound 0.01 µM); 71.6% (second compound 0.3 µM, first compound 0.0316 µM); 57.3% (second compound 0.3 µM, first compound 0.1 µM).

Consider `C=CC(=O)N1CCN(c2nc(OCC3CCCN3C)nc3c(F)c(-c4nc(N)cc(C)c4C(F)(F)F)c(Cl)cc23)C(C)C1` (stereo unspecified), for which the viability, T/C by setting is: (compound 0.0316 µM) 105% [middle of 12 runs]; (compound 0.316 µM) 100% [middle of 12 runs]. The IC50 (compound alone, run of 06/10/2024) was over 1000 nM and the IC50 (curve of compound) is over 1000 nM.

For `CCN1CCN(Cc2ccc(Nc3ncc(F)c(-c4cc(F)c5nc(C)n(C(C)C)c5c4)n3)nc2)CC1`, the viability, T/C (compound 0.00316 µM) is 105% [middle of 4 runs]; the viability, T/C (compound 0.01 µM) is 107% [middle of 4 runs]; the viability, T/C (compound 0.316 µM) is 121% and 132% (2×) and 151%; the viability, T/C (compound 1 µM) was 178% [middle of 4 runs]. In addition, the IC50 (curve of compound) is over 1000 nM.
